# Experimental data: USRE37781E1, “Substituted cyclic carbonyls and derivatives thereof useful as retroviral protease inhibitors” (DuPont Pharmaceuticals Company, priority 1991, dated 2002)
# Like-named read-outs stand apart in the source and are kept apart here.
# How the values were obtained:
# [1] = tested on: HIV-1 (RF) in MT-2 cells; test: microbe, parasite or virus in culture; format: cell-based
# Procedure, shortened: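 Read-out: gag and pol viral RNA captured by 5′-biotinylated oligonucleotides on streptavidin-coated wells, detected with alkaline phosphatase-linked reporter oligonucleotides, calibrated against BH10 in vitro transcripts. Virus stocks (RF, MN, IIIB) come from H9 cultures; MT-2 host cells kept in RPMI 1640, 5% FCS.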
# [2] = molecular target: single-chain tethered dimer of HIV protease (Human immunodeficiency virus 1, UniProt P04585); test: biochemical; format: biochemical; design: fused on or other part: A second copy of the same protease unit is joined to the first by a short peptide tether, giving one polypeptide
# [3] = Table 2d, HIV protease inhibition, HPLC method, read-out: HPLC K1
# [4] = Table 2d, class symbols, read-out: HPLC K1
# [5] = Human immunodeficiency virus 1, MT2, 48 h, Table 2d, HIV RNA assay, read-out: IC90
# [6] = read-out: HPLC K1, Table 2d, HIV protease inhibition, HPLC method
# [7] = Human immunodeficiency virus 1, MT2, 48 h, Table 2d, class symbols, read-out: IC90
# [8] = read-out: HPLC K1, Table 2d, class symbols
smiles,measurement,setting,value
Oc1cccc(CN2C(=S)N(Cc3cccc(O)c3)C(Cc3ccccc3)C(O)C(O)C2Cc2ccccc2)c1 (centres unmarked) [Example 27J],IC90,[1]; Table 2q,+++ (+++=<10 μg/mL)
same,Ki,"[2]; Table 2q, read-out: HPLC Ki",< 10 nM
O=C(NCCN1CCOCC1)c1cccc(CN2C(=O)N(CC3CC3)C(Cc3ccccc3)C(O)C(O)C2Cc2ccccc2)c1 (centres unmarked) [15YB],IC90,"[1]; Table 2d, HIV RNA assay",+++ (+++=<10 μg/mL)
same,Ki,[2]; [3],< 10 nM
CC(C)(C)OC(=O)c1ccc(CN2C(=O)N(Cc3ccc(C(=O)OC(C)(C)C)o3)C(Cc3ccccc3)C(O)C(O)C2Cc2ccccc2)o1 (centres unmarked) [Example 13W],IC90,"[1]; Table 2d, class symbols",+++ (+++=<10 μg/mL)
same,Ki,[2]; [4],> 1000 nM
O=C1N(Cc2ccccc2)[C@H](Cc2ccccc2)C[C@@H](O)[C@@H](Cc2ccccc2)N1Cc1ccccc1 [Example 7AN],Mass Spec M + H (class symbols printed in this column),"[1]; Table 1d, lower part",+++ (+++=<10 μg/mL)
same,Ki,"[2]; read-out: HPLC Ki, Table 1d, lower part",< 10 nM
CC(=O)c1cccc(CN2C(=O)N(Cc3cccc(C(=O)CCN(C)C)c3)C(Cc3ccccc3)C(O)C(O)C2Cc2ccccc2)c1 (centres unmarked) [15AD],IC90,"[1]; Table 2d, HIV RNA assay",+++ (+++=<10 μg/mL)
same,Ki,[2]; [3],< 10 nM
O=C1N(Cc2cccc(CNOCc3ccccc3)c2)C(Cc2ccccc2)C(O)C(O)C(Cc2ccccc2)N1Cc1cccc(CNOCc2ccccc2)c1 (centres unmarked) [Example 9F],IC90,"[1]; Table 2d, class symbols",+ (+=>100 μg/mL)
same,Ki,[2]; [4],10 to 1000 nM
NC(=NO)c1cccc(CN2C(=O)N(Cc3cccc(C(N)=NO)c3)C(Cc3ccc(F)c(F)c3)C(O)C(O)C2Cc2ccc(F)c(F)c2)c1 (centres unmarked) [20AD],IC90,[1]; Table 2i,+++ (+++=<10 μg/mL)
same,Ki,"[2]; Table 2i, read-out: HPLC Ki",< 10 nM
O=C1N(Cc2ccc(OCc3ccccc3)cc2)C(Cc2ccccc2)C(O)C(O)C(Cc2ccccc2)N1Cc1cccc(-c2cc[nH]n2)c1 (centres unmarked) [Example 15BY],IC90,[1]; [5],< 10 µg/mL
same,Ki,[2]; [6],< 10 nM
Nc1cccc(CN2C(=O)N(Cc3ccc(CO)cc3)C(Cc3ccccc3)C(O)C(O)C2Cc2ccccc2)c1 (centres unmarked) [15A],IC90,[1]; [7],< 10 µg/mL
same,Ki,[2]; [8],< 10 nM
CC(C)(C)C(=O)c1cccc(CN2C(=O)N(Cc3cccc(C(=O)C(C)(C)C)c3)C(Cc3ccccc3)C(O)C(O)C2Cc2ccccc2)c1 (centres unmarked) [Example 15XH],IC90,[1]; [5],< 10 µg/mL
same,Ki,[2]; [6],< 10 nM
CN(C)CCNC(=O)c1cccc(CN2C(Cc3ccccc3)C(O)C(O)C(Cc3ccccc3)N(Cc3cccc(C(=O)NCCN(C)C)c3)S2(=O)=O)c1 (centres unmarked) [23AA],IC90,[1]; Table 2m,++ (++=10 to 100 μg/mL)
same,Ki,"[2]; Table 2m, read-out: HPLC Ki",10 to 1000 nM
O=C1N(Cc2ccc3oc(=O)[nH]c3c2)C(Cc2ccccc2)C(O)C(O)C(Cc2ccccc2)N1Cc1ccc2oc(=O)[nH]c2c1 (centres unmarked) [15DC],IC90,"[1]; Table 2d, HIV RNA assay",+++ (+++=<10 μg/mL)
same,Ki,[2]; [3],< 10 nM
O=C1N(CCCCO)C(Cc2ccccc2)C(O)C(O)C(Cc2ccccc2)N1CCCCO (centres unmarked) [Example 12F],IC90,[1]; [7],10 to 100 µg/mL
same,Ki,[2]; [8],10 to 1000 nM
CCC(O)CN1C(=O)NC(Cc2ccccc2)C(O)C(O)C1Cc1ccccc1 (centres unmarked) [Example 15VL],IC90,[1]; [7],> 50 µg/mL
same,Ki,[2]; [8],> 1000 nM
Nc1cccc(CN2C(=O)N(CC3CC3)C(Cc3ccccc3)C(O)C(O)C2Cc2ccccc2)c1 (centres unmarked) [15G],IC90,[1]; [7],< 10 µg/mL
same,Ki,[2]; [8],< 10 nM
CC(=O)Oc1ccc(CN2C(=O)N(Cc3ccc(OC(C)=O)cc3)C(Cc3ccccc3)C(O)C(O)C2Cc2ccccc2)cc1 (centres unmarked) [10L],IC90,[1]; [7],< 10 µg/mL
same,Ki,[2]; [8],10 to 1000 nM
O=C1N(CCCCCO)C(Cc2ccccc2)C(O)C(O)C(Cc2ccccc2)N1Cc1cccc(CO)c1 (centres unmarked) [Example 15WE],IC90,[1]; [7],< 10 µg/mL
same,Ki,[2]; [8],< 10 nM
O=S1(=O)N(Cc2ccccc2)C(Cc2ccccc2)C2OC2C(Cc2ccccc2)N1Cc1ccccc1 (centres unmarked) [31F],IC90,[1]; Table 2u,++/+ (The ++/+ is used in the cases where an IC90 was determined to be >50 μg/mL)
same,IC90,[1]; Table 2u (second printing),++/+ (The ++/+ is used in the cases where an IC90 was determined to be >50 μg/mL)
same,Ki,"[2]; Table 2u (second printing), HPLC method, read-out: K1 (HPLC)",> 1000 nM
same,Ki,"[2]; Table 2u, HPLC method, read-out: K1 (HPLC)",> 1000 nM
O=C1N(CCCCC(O)CO)C(Cc2ccccc2)C(O)C(O)C(Cc2ccccc2)N1CCCCC(O)CO (centres unmarked) [Example 13I],IC90,[1]; [7],> 100 µg/mL
same,Ki,[2]; [8],< 10 nM
NC(=NO)c1cc(CN2C(=O)N(Cc3ccc(F)c(C(N)=NO)c3)C(Cc3ccccc3)C(O)C(O)C2Cc2ccccc2)ccc1F (centres unmarked) [15EF],IC90,"[1]; Table 2d, HIV RNA assay",+++ (+++=<10 μg/mL)
same,Ki,[2]; [3],< 10 nM
CCCCN1C(=O)N(CCCC)C(Cc2ccccc2)C(O)C(O)C1Cc1ccccc1 (centres unmarked) [Example 13R],IC90,[1]; [7],< 10 µg/mL
same,Ki,[2]; [8],10 to 1000 nM
CCCC(=O)c1cccc(CN2C(=O)N(Cc3cccc(C(=O)CCC)c3)C(Cc3ccc(F)cc3)C(O)C(O)C2Cc2ccc(F)cc2)c1 (centres unmarked) [20P],IC90,[1]; Table 2i,+++ (+++=<10 μg/mL)
same,Ki,"[2]; Table 2i, read-out: HPLC Ki",< 10 nM
CCNc1n[nH]c2ccc(CN3C(=O)N(Cc4ccc5[nH]nc(NCC)c5c4)C(Cc4ccccc4)C(O)C(O)C3Cc3ccccc3)cc12 (centres unmarked) [15DJ],IC90,"[1]; Table 2d, HIV RNA assay",+++ (+++=<10 μg/mL)
same,Ki,[2]; [3],< 10 nM
CN(C)CC(=O)Nc1cccc(CN2C(=O)N(Cc3cccc(NC(=O)CN(C)C)c3)C(Cc3ccccc3)C(O)C(O)C2Cc2ccccc2)c1.Cl.Cl (centres unmarked) [15N],IC90,"[1]; Table 2d, class symbols",+++ (+++=<10 μg/mL)
same,Ki,[2]; [4],< 10 nM
